{
  "source": "patent US10583124B2",
  "about": "“Wild bird treatment composition and methods” (priority 2016, dated 2020)",
  "key": {"[1]": {"conditions": "as long as protected from photo oxidation; cited from earlier work"}, "[2]": {"type": "physicochemical", "conditions": "in acetonitrile, positive control, 1 hour", "method": "Composition 10 was exposed to elevated temperature (75° C.) for 1 hour to determine if fenbendazole inside composition 10 was being protected from the effects of high temperature. Control composition 10 was left at room temperature for the same time period. Additionally, 100 ppm fenbendazole in acetonitrile was used as a positive control and exposed to the same conditions (room and elevated temperature for 1 hour)."}},
  "note": "Read-outs that look alike come from different tables or passages of the source.",
  "data": [
    {"smiles": "COC(=O)Nc1nc2ccc(Sc3ccccc3)cc2[nH]1", "note": "[fenbendazole]", "values": [
      {"measurement": "humidity range in which stable", "setting": "[1]", "value": "10-100%"},
      {"measurement": "temperature range in which stable", "setting": "[1]", "value": "4.4-37.7 °C"},
      {"measurement": "Fenbendazole extracted from 100 ppm fenbendazole solution", "setting": "[2]; 21 °C (room temperature)", "value": 115.18, "unit": "ppm"},
      {"measurement": "Fenbendazole extracted from 100 ppm fenbendazole solution", "setting": "[2]; 75 °C", "value": 93.36, "unit": "ppm"}
    ]}
  ]
}
